Assay results from patent publication US20260130917A1, “ANTIVIRAL COMPOSITION FOR CORONAVIRUS OR INFLUENZA VIRUS, USING NATURAL PRODUCTS, AND USE THEREOF” (priority 2022, published 2026).

Test system: SARS-CoV-2 variants: Ancestral (lineage A), Alpha (B.1.1.7), Beta (B.1.351), Gamma (P.1), Delta (B.1.617.2), Omicron (B.1.1.529)
Assay type: cell-based

## CCCCCOc1cccc(/C=C/C23N=C(O)CCN2c2ccccc2C3(C)C)c1 (stereo not shown) [MolPort-005-980-235, 10,10-dimethyl-10a-[(1E)-2-[3-(pentyloxy)phenyl]ethenyl]-3H,4H,10H,10aH-pyrimido[1,2-a]indol-2-ol]
  antiviral activity against SARS-CoV-2 variants: had antiviral activity against all verified SARS-CoV-2 variants, including Omicron, in a dose-dependent manner
